Source: US20230024842A1, “MUPS TABLET COMPRISING RIBOFLAVIN” (DSM IP Assets B.V., priority 2019, published 2023)

Experiment: Absorption of the water solution after 15 min (coloration / riboflavin release from coated particles)
Format: physicochemical
Conditions: amount containing 10 mg riboflavin dissolved in 1000 ml water for 15 min; measured at 545 nm, spectrophotometer (Genesys 20)
Protocol: 20 mg of coated powder (containing 10 mg of Riboflavin) was dissolved in 1000 ml water for 15 min. Absorption of the solution was measured at 545 nm using a spectrophotometer (Genesys 20, thermo Scientific). Absorption of the solution was 0.065.
10 mg of riboflavin powder was dissolved in 1000 ml water for 15 min. Absorption of the solution was measured at 545 nm using a spectrophotometer (Genesys 20, thermo Scientific). Absorption of the solution was 0.386.
16.6 mg of coated powder (containing 10 mg of Riboflavin) was dissolved in 1000 ml water for 15 min. Absorption of the solution was measured at 545 nm using a spectrophotometer (Genesys 20, thermo Scientific). Absorption of the solution was 0.087.

Cc1cc2nc3c(=O)[nH]c(=O)nc-3n(C[C@H](O)[C@H](O)[C@H](O)CO)c2cc1C [Comparison Example 2, riboflavin]
Absorption of the solution: 0.386
